Laboratory results as given in ChEMBL document CHEMBL1201862, “PubChem BioAssay data set” (2004).
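Compound exposure: 48 hours, 5 concentrations, 96-well plates. Here, GI50 denotes the concentration required for 50% inhibition of growth.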 Calls of active or inactive are those of the source. No stated cut-off is given here; in the data, active = GI50 up to about 1.1 µM and inactive = higher.

Columns and labels:
Assay in all cases: NCI anticancer screen, dose series, 48 h
[1] = tested on: OVCAR-8
[2] = tested on: MDA-MB-435
[3] = tested on: NCI-H460
[4] = tested on: MDA-MB-231
[5] = tested on: CCRF-CEM
[6] = tested on: RXF 393
[7] = tested on: UO-31
[8] = tested on: OVCAR-4
[9] = tested on: SF-539
[10] = tested on: IGROV-1
[11] = tested on: T47D
[12] = tested on: MDA-N
[13] = tested on: SK-OV-3
[14] = tested on: HCC 2998
[15] = tested on: HOP-92
[16] = tested on: NCI-H522
[17] = tested on: A549
[18] = tested on: HT-29
[19] = tested on: SNB-75
[20] = tested on: CAKI-1
[21] = tested on: U-251
[22] = tested on: UACC-257
[23] = tested on: SF-295
[24] = tested on: HL-60
[25] = tested on: EKVX
[26] = tested on: NCI/ADR-RES
[27] = tested on: KM12
[28] = tested on: NCI-H226
[29] = tested on: SK-MEL-2
[30] = tested on: COLO 205
[31] = tested on: MOLT-4
[32] = tested on: HCT-15
[33] = tested on: 786-0
[34] = tested on: RPMI-8226
[35] = tested on: LOX IMVI
[36] = tested on: BT-549
[37] = tested on: SK-MEL-5
[38] = tested on: K562
[39] = tested on: M14
[40] = tested on: SF-268
[41] = tested on: HCT-116
[42] = tested on: PC-3
[43] = tested on: UACC-62
[44] = tested on: Hs-578T
[45] = tested on: ACHN
[46] = tested on: OVCAR-5
[47] = tested on: TK-10
[48] = tested on: A498
[49] = tested on: SN12C
[50] = tested on: DU-145
[51] = tested on: NCI-H23
[52] = tested on: MCF7
[53] = tested on: HOP-62
[54] = tested on: SNB-19
[55] = tested on: SW-620
[56] = tested on: Malme-3M
[57] = tested on: OVCAR-3
[58] = tested on: SK-MEL-28
[59] = tested on: SR

O=C1C=CC(=O)C(CNc2ccc(C(=O)OC34CC5CC(CC(C5)C3)C4)cc2)=C1Br
GI50 [1]: 5510 nM (inactive) | GI50 [2]: 14700 nM (inactive) | GI50 [3]: 11500 nM (inactive) | GI50 [4]: 10200 nM (inactive) | GI50 [5]: 1990 nM (inactive) | GI50 [6]: 4980 nM (inactive) | GI50 [7]: 6750 nM (inactive) | GI50 [8]: 5190 nM (inactive) | GI50 [9]: 1590 nM (inactive) | GI50 [10]: 3730 nM (inactive) | GI50 [11]: 3330 nM (inactive) | GI50 [12]: 15600 nM (inactive) | GI50 [13]: 17300 nM (inactive) | GI50 [14]: 12400 nM (inactive) | GI50 [15]: 2340 nM (inactive) | GI50 [16]: 435 nM (active) | GI50 [17]: 13300 nM (inactive) | GI50 [18]: 5010 nM (inactive) | GI50 [19]: 6150 nM (inactive) | GI50 [20]: 3520 nM (inactive) | GI50 [21]: 4000 nM (inactive) | GI50 [22]: 13500 nM (inactive) | GI50 [23]: 14100 nM (inactive) | GI50 [24]: 1660 nM (inactive) | GI50 [25]: 6460 nM (inactive) | GI50 [26]: 3820 nM (inactive) | GI50 [27]: 5620 nM (inactive) | GI50 [28]: 16700 nM (inactive) | GI50 [29]: 15400 nM (inactive) | GI50 [30]: 7290 nM (inactive) | GI50 [31]: 2240 nM (inactive) | GI50 [32]: 5190 nM | GI50 [33]: 13200 nM (inactive) | GI50 [34]: 5600 nM (inactive) | GI50 [35]: 9480 nM (inactive) | GI50 [36]: 5330 nM (inactive) | GI50 [37]: 9310 nM (inactive) | GI50 [38]: 5580 nM (inactive) | GI50 [39]: 13400 nM (inactive) | GI50 [40]: 12200 nM (inactive) | GI50 [41]: 12700 nM (inactive) | GI50 [42]: 4760 nM (inactive) | GI50 [43]: 7380 nM (inactive) | GI50 [44]: 6350 nM (inactive) | GI50 [45]: 14600 nM (inactive) | GI50 [46]: 16700 nM (inactive) | GI50 [47]: 13900 nM (inactive) | GI50 [48]: 17900 nM (inactive) | GI50 [49]: 11100 nM (inactive) | GI50 [50]: 23600 nM (inactive) | GI50 [51]: 7350 nM (inactive) | GI50 [52]: 15900 nM (inactive) | GI50 [53]: 19000 nM (inactive) | GI50 [54]: 15600 nM (inactive) | GI50 [55]: 18200 nM (inactive) | GI50 [56]: 4900 nM (inactive) | GI50 [57]: 13500 nM (inactive)

C/C(=N\NC(=S)NC1CCCC1)c1ccccn1
GI50 [1]: < 21.8 nM (active) | GI50 [2]: 578 nM (active) | GI50 [3]: 53.3 nM (active) | GI50 [4]: 1080 nM (active) | GI50 [5]: < 10 nM (active) | GI50 [7]: < 26 nM (active) | GI50 [8]: 135 nM (active) | GI50 [9]: 1020 nM (active) | GI50 [10]: < 10 nM (active) | GI50 [11]: < 10 nM (active) | GI50 [12]: 165 nM (active) | GI50 [13]: 100 nM (active) | GI50 [14]: 515 nM (active) | GI50 [15]: 71.8 nM (active) | GI50 [17]: 99.1 nM (active) | GI50 [18]: < 10 nM (active) | GI50 [19]: 2250 nM (inactive) | GI50 [20]: < 10 nM (active) | GI50 [21]: 75.3 nM (active) | GI50 [22]: < 10 nM (active) | GI50 [23]: 223 nM (active) | GI50 [58]: 3280 nM (inactive) | GI50 [24]: < 10 nM (active) | GI50 [25]: < 10 nM (active) | GI50 [26]: < 10 nM (active) | GI50 [27]: 70.8 nM (active) | GI50 [28]: 41.6 nM (active) | GI50 [29]: 1350 nM (inactive) | GI50 [30]: < 10 nM (active) | GI50 [31]: < 10 nM (active) | GI50 [32]: < 10 nM | GI50 [33]: 46.7 nM (active) | GI50 [34]: < 10 nM (active) | GI50 [35]: < 10 nM (active) | GI50 [36]: 472 nM (active) | GI50 [37]: 205 nM (active) | GI50 [59]: < 10 nM (active) | GI50 [38]: < 10 nM (active) | GI50 [39]: < 10 nM (active) | GI50 [40]: 569 nM (active) | GI50 [41]: < 10 nM (active) | GI50 [42]: < 10 nM (active) | GI50 [43]: 200 nM (active) | GI50 [44]: 36600 nM (inactive) | GI50 [45]: < 10 nM (active) | GI50 [46]: 35.6 nM (active) | GI50 [47]: 202 nM (active) | GI50 [48]: 650 nM (active) | GI50 [49]: 299 nM (active) | GI50 [50]: 900 nM (active) | GI50 [51]: < 17.7 nM (active) | GI50 [52]: < 10 nM (active) | GI50 [53]: < 17 nM (active) | GI50 [54]: 1050 nM (active) | GI50 [55]: < 10 nM (active) | GI50 [56]: 434 nM (active) | GI50 [57]: < 10 nM (active)
